Read-outs that look alike come from different tables or passages of the source.
Columns and labels:
PC3 = assay: RT-CES cell proliferation inhibition, PC3; format: cell-based; settings: Homo sapiens, PC-3
Excerpt: (§1) The biological activity of compounds disclosed herein was monitored and profiled using the Real-Time Cell Electronic Sensing (RT-CES®) system from ACEA Biosciences, Inc. The RT-CES system utilizes cell-substrate impedance technology to monitor cellular behavior inside tissue culture wells in a microtiter plate format. The technology features in the integration of molecular and cell biology with microelectronics and is based on the electronic detection of biological assay process. The details of this cell electronic sensing technology and associated devices, systems and methods of use as described in U.S. provisional application No. 60/379,749, filed on Jul. […]
(§2) For measurement of cell-substrate or cell-electrode impedance using RT-CES technology, microelectrodes having appropriate geometries are fabricated onto the bottom surfaces of microtiter plate or similar device, facing into the wells. […] When there are changes to the biological status of the cells analogue electronic readout signals are measured automatically and in real time, and are converted to digital signals for processing and for analysis. In a RT-CES system, a cell index (arbitrary representation of change in impedance) is automatically derived and provided based on measured electrode impedance values. […]
(§3) To quantify cell status based on the measured cell-electrode impedance, a parameter termed Cell Index is derived. […]

SKOV3 = assay: RT-CES cell proliferation inhibition, SKOV3; format: cell-based; settings: Homo sapiens, SK-OV-3
Excerpt: as §1, §2, §3

HepG2 = assay: RT-CES cell proliferation inhibition, HepG2; format: cell-based; settings: Homo sapiens
Excerpt: as §1, §2, §3

KB200 = assay: RT-CES cell proliferation inhibition, KB200; format: cell-based; settings: Homo sapiens
Excerpt: as §1, §2, §3

MDCK = assay: RT-CES cell proliferation inhibition, MDCK; format: cell-based, Monkey; settings: Canis lupus familiaris
Excerpt: as §1, §2, §3

KB = assay: RT-CES cell proliferation inhibition, KB; format: cell-based; settings: Homo sapiens
Excerpt: as §1, §2, §3

MCF7adr = assay: RT-CES cell proliferation inhibition, MCF7adr; format: cell-based; settings: Homo sapiens, NCI/ADR-RES
Excerpt: as §1, §2, §3

MKN45 = assay: RT-CES cell proliferation inhibition, MKN45; format: cell-based; settings: Homo sapiens, MKN-45
Excerpt: as §1, §2, §3

SH-SY5Y = assay: RT-CES cell proliferation inhibition, SH-SY5Y; format: cell-based; settings: Homo sapiens
Excerpt: as §1, §2, §3

Panc-1 = assay: RT-CES cell proliferation inhibition, Panc-1; format: cell-based; settings: Homo sapiens
Excerpt: as §1, §2, §3

HT29 = assay: RT-CES cell proliferation inhibition, HT29; format: cell-based; settings: Homo sapiens, HT-29
Excerpt: as §1, §2, §3

[1] = test system: a number of cancer cell lines (MCF7adr, PC3, KB, KB200, Bcap37); assay: RT-CES time-dependent cell index, a number of cancer cell lines (FIG. 10, 11); format: cell-based, human; settings: various concentrations
Excerpt: as §1, §2, §3

3T3 = assay: RT-CES cell proliferation inhibition, 3T3; format: cell-based; settings: Mus musculus, NIH3T3
Excerpt: as §1, §2, §3

Br.CCOc1ccc(Nc2nc(-c3c(C)nc4sccn34)cs2)cc1 [Compound 27, 2-(4-ethoxyphenyl)amino-4-(6-methylimidazo[2,1-b]thiazol-5-yl)thiazole]
IC50 (PC3; PC3, 24 hrs, read-out: IC50 (24 hr)): 10.9 nM
IC50 (PC3; PC3, 48 hrs, read-out: IC50 (48 hr)): 5.37 nM
IC50 (SKOV3; SKOV3, 24 hrs, read-out: IC50 (24 hr)): 19.8 nM
IC50 (SKOV3; SKOV3, 48 hrs, read-out: IC50 (48 hr)): 11.5 nM
IC50 (HepG2; HepG2, 24 hrs, read-out: IC50 (24 hr)): > 200 nM
IC50 (HepG2; HepG2, 48 hrs, read-out: IC50 (48 hr)): > 200 nM
IC50 (KB200; KB200, 24 hrs, read-out: IC50 (24 hr)): 12.1 nM
IC50 (KB200; KB200, 48 hrs, read-out: IC50 (48 hr)): 4.28 nM
IC50 (MDCK; 24 hrs, read-out: IC50 (24 hr)): 930 nM
IC50 (MDCK; 48 hrs, read-out: IC50 (48 hr)): 1870 nM
IC50 (KB; 24 hrs, read-out: IC50 (24 hr)): 22.2 nM
IC50 (KB; 48 hrs, read-out: IC50 (48 hr)): 18.1 nM
IC50 (MCF7adr; 24 hrs, read-out: IC50 (24 hr)): 12.3 nM
IC50 (MCF7adr; 48 hrs, read-out: IC50 (48 hr)): 12.5 nM
IC50 (MKN45; MKN45, 24 hrs, read-out: IC50 (24 hr)): > 200 nM
IC50 (MKN45; MKN45, 48 hrs, read-out: IC50 (48 hr)): > 200 nM
IC50 (SH-SY5Y; 24 hrs, read-out: IC50 (24 hr)): 13.4 nM
IC50 (SH-SY5Y; 48 hrs, read-out: IC50 (48 hr)): 6.7 nM
IC50 (Panc-1; Panc-1, 24 hrs, read-out: IC50 (24 hr)): 113 nM
IC50 (Panc-1; Panc-1, 48 hrs, read-out: IC50 (48 hr)): 426 nM
IC50 (HT29; HT29, 24 hrs, read-out: IC50 (24 hr)): 53.6 nM
IC50 (HT29; HT29, 48 hrs, read-out: IC50 (48 hr)): 58.8 nM
inhibitory effect on the proliferation of a number of cancer cell lines [1]: exhibited inhibitory effect on the proliferation of a number of cancer cell lines
IC50 (3T3; 3T3, 24 hrs, read-out: IC50 (24 hr)): 20.6 nM
IC50 (3T3; 3T3, 48 hrs, read-out: IC50 (48 hr)): 51.5 nM

Reference: patent US8252822B2, “Heterocyclic compounds and uses as anticancer agents” (Acea Biosciences, Inc., priority 2007, dated 2012)
